Assay results from publication PMC9863987, “Identification of Aryl Polyamines Derivatives as Anti-Trypanosoma cruzi Agents Targeting Iron Superoxide Dismutase” (Pharmaceutics, 2022).

Assays:
[1] = test system: T. cruzi Arequipa strain epimastigotes; experiment: Screening against extracellular epimastigotes, Arequipa strain (resazurin); assay type: cell-based, Trypanosoma cruzi
Method: Three different T. cruzi […] strains—MHOM/Pe/2011/Arequipa, discrete typing unit (DTU) V [26]; IRHOD/CO/2008/SN3, DTU I [27]; TINF/CH/1956/Tulahuen, DTU VI [26]—were grown at 28 °C in Gibco® RPMI 1640 Medium supplemented as previously reported, and used for in vitro screening.
Trypanocidal activity against epimastigotes was tested as previously reported. In brief, 5 × 10^5 mL^−1 epimastigotes culture medium were treated by adding the compounds in serial dilutions from 100 to 0.2 µM in 96-well plates (200 µL·well^−1) for 48 h. BZN and untreated growth control were also included in triplicate. Later, 20 μL of resazurin sodium salt (Sigma-Aldrich, St. Louis, MO, USA) was added, and the plates were incubated for another 24 h. Finally, the absorbance of the wells was measured at 570/600 nm and related to the control. The trypanocidal activity was expressed as the IC50 (inhibitory concentration 50) value using GraphPad Prism 6 software.

[2] = test system: T. cruzi Arequipa strain trypomastigotes; experiment: Screening against bloodstream trypomastigotes, Arequipa strain (resazurin); assay type: cell-based, Trypanosoma cruzi
[3] = test system: T. cruzi SN3 strain amastigotes; experiment: Screening against intracellular amastigotes in Vero cells, SN3 strain (Giemsa counting); assay type: cell-based, Trypanosoma cruzi
Method: TINF/CH/1956/Tulahuen, DTU VI [26]—were grown at 28 °C in Gibco® RPMI 1640 Medium supplemented as previously reported, and used for in vitro screening. Trypanocidal activity against amastigotes was tested as previously reported. In brief, bloodstream trypomastigotes (BTs), obtained by cardiac puncture from infected BALB/c mice, were used to infect 1 × 10^4 Vero cells·well^−1 in 24-well plates with rounded coverslips at a multiplicity of infection (MOI) ratio of 10:1. After 24 h of infection, non-internalized trypomastigotes were washed and the infected cells were treated by adding the compounds in serial dilutions from 50 to 0.5 µM in […] for 72 h. BZN and untreated growth controls were also included in triplicate. Later, the number of amastigotes and infected cells were determined in Giemsa stained preparations by analysing 500 host cells randomly distributed in microscopic fields. The trypanocidal activity was expressed as the IC50 using GraphPad Prism 6 software (version 6.07).

[4] = test system: T. cruzi SN3 strain trypomastigotes; experiment: Screening against bloodstream trypomastigotes, SN3 strain (resazurin); assay type: cell-based, Trypanosoma cruzi
[5] = test system: T. cruzi Tulahuen strain trypomastigotes; experiment: Screening against bloodstream trypomastigotes, Tulahuen strain (resazurin); assay type: cell-based, Trypanosoma cruzi
Vero cells = experiment: Cytotoxicity test on mammalian Vero cells (resazurin); assay type: cell-based; conditions: Chlorocebus sabaeus, 48 h treatment + 24 h resazurin, mean of three ± SD, read-out: Toxicity IC50 Vero Cell
Method: Cytotoxicity against mammalian Vero cells (EACC No. 84113001) was tested as previously reported. In brief, 1.25 × 10^4 Vero cells·mL^−1, cultured at 37 °C, were treated by adding the compounds in serial dilutions from 400 to 1 µM in 96-well plates (200 µL·well^−1) for 48 h. BZN and untreated controls were also included in triplicate. Later, 20 μL of resazurin sodium salt (Sigma-Aldrich) was added, and the plates were incubated for another 24 h. Finally, cell viability was determined following the same procedure as described to assess the trypanocidal activity in the epimastigotes.

T. cruzi Arequipa strain = experiment: Nested amastigotes detection by PCR in nine target organs/tissues of infected BALB/c mice; assay type: in vivo, Trypanosoma cruzi; conditions: oral 20 mg/Kg/day for 5 days
Method: Infection was carried out by intraperitoneal inoculation of 5 × 10^5 BTs of T. cruzi Arequipa strain per mouse in 0.2 mL PBS [26]. The infection was monitored and on the 10th day post-infection (dpi), when BTs were visible in the bloodstream, the infection was confirmed.
Mice were divided into four groups (n = 3 per group): 0, negative control group (uninfected and untreated mice); I, positive control group (infected and untreated mice); II, BZN group (mice infected and treated with BZN); III, 15 group (mice infected and treated with 15).
The treatment for mice treated in the acute and chronic CD began when the infection was confirmed (10th dpi) and was stablished that the animals had entered the chronic CD (75th dpi), respectively (Scheme 1). Compound 15 and BZN were orally administered for 5 consecutive days at a dose of 20 mg·Kg^−1·day^−1.
After CP-induced immunosuppression, the mice were euthanised using CO2 by exsanguination via cardiac puncture, and blood was collected. Then, 9 target organs/tissues were harvested: adipose, bone marrow, brain, oesophagus, heart, lung, muscle, spleen, and stomach. These organs/tissues were perfused with pre-warmed PBS to avoid contamination with BTs, and stored at −80 °C. In addition, spleens were weighed to assess splenomegaly.
DNA extraction of the target organs/tissues was performed using Wizard® Genomic DNA Purification Kit. DNA was subjected to amplification by PCR based on the sequence of the T. cruzi splice leader (SL) intergenic region using two published primers (TC and TC1) that allow the amplification of a 300 base pairs fragment in different biological samples. […]

[6] = test system: epimastigotes of T. cruzi Arequipa strain; experiment: Mitochondrial membrane potential by flow cytometry (rhodamine 123); assay type: cell-based, Trypanosoma cruzi; conditions: compounds at IC25 concentrations, 72 h; KCN 10 mM, 40 min; mean of three ± SD
[7] = IC50 Vero cells/IC50 trypomastigotes
[8] = Trypanosoma cruzi, trypomastigotes, 24 h + 4 h resazurin, mean of three ± SD

c1cc2nc(c1)CNCCN(CCNCc1ccc3ccc4ccc(CNCCN5CCNCc6cccc(n6)CNCC5)nc4c3n1)CCNC2 [Compound 15]
Selectivity Index T. cruzi Arequipa Strain E ([1]; IC50 Vero cells/IC50 epimastigotes): 101.7
IC50 ([1]; Trypanosoma cruzi, epimastigotes, 48 h treatment + 24 h resazurin, mean of three ± SD, read-out: Activity IC50 T. cruzi Arequipa Strain E): 6.4 ± 0.6 µM
Selectivity Index T. cruzi Arequipa Strain T [2, 7]: 409.3
IC50 [2, 8]: 1.6 ± 0.1 µM
Selectivity Index T. cruzi SN3 Strain A ([3]; IC50 Vero cells/IC50 amastigotes): 58.0
IC50 ([3]; Trypanosoma cruzi, amastigotes in Vero cells, 72 h, mean of three ± SD): 11.3 ± 0.9 µM
Selectivity Index T. cruzi SN3 Strain T [4, 7]: 62.0
IC50 [4, 8]: 10.6 ± 0.9 µM
Selectivity Index T. cruzi Tulahuen Strain T [5, 7]: 83.6
IC50 ([5]; Trypanosoma cruzi, TULAHUEN, trypomastigotes, 24 h + 4 h resazurin, mean of three ± SD): 7.8 ± 0.7 µM
CC50 (Vero cells): 655 ± 51.9 µM
clearance of nested parasites in target organs/tissues (parasite-free organs/tissues, PCR) (T. cruzi Arequipa strain; treatment in the acute infection): 67%
clearance of nested parasites in target organs/tissues (parasite-free organs/tissues, PCR) (T. cruzi Arequipa strain; treatment in the chronic infection): 89%
Inhibition on mitochondrial membrane potential with respect to untreated epimastigotes [6]: 43.1%
